According to patent US20240208912A1 (Mirati Therapeutics, Inc., priority 2021, published 2024):

biological target: T1, PRMT5/MEP50 complex (Homo sapiens, UniProt O14744); test: PRMT5:MEP50 HotSpot Assay (full-length histone H2A substrate, plus and minus MTA); type: biochemical; conditions: IC50 + 2 μM MTA, in the presence of 2 μM MTA
T1 construct: purchased Reaction Biology Corporation
Description: The PRMT5 inhibitory activity of compounds of the present invention was determined using either a PRMT5:MEP50 FlashPlate Assay (Reaction Biology Corporation) or a PRMT5:MEP50 HotSpot Assay (Reaction Biology Corporation).
The assay uses recombinant full-length hi stone H2A as the PRMT5 substrate. […] The reaction was stopped and transferred to filter paper for detection. The amount of tritiated H2A in each sample was determined using a scintillation counter.

T1 sequence (O14744 2-637 limits assumed): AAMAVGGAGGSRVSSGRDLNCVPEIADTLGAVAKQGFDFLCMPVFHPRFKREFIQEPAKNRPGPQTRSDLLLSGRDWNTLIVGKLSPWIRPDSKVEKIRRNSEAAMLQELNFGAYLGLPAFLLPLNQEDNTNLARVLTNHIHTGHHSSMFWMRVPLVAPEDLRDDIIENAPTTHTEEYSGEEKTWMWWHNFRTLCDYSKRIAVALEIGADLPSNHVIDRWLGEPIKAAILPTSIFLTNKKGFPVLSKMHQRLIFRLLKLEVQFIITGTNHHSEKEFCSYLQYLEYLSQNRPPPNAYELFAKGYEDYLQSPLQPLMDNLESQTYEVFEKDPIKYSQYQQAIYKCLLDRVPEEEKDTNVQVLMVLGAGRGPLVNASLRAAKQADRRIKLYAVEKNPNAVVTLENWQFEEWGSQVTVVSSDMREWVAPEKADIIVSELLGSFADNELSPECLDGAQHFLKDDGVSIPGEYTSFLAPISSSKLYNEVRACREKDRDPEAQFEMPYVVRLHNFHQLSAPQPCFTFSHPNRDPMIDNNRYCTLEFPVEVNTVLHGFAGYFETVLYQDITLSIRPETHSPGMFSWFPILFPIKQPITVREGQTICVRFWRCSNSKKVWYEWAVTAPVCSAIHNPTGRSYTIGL
T1 sequence (Q9BQA1 2-342 partner limits assumed): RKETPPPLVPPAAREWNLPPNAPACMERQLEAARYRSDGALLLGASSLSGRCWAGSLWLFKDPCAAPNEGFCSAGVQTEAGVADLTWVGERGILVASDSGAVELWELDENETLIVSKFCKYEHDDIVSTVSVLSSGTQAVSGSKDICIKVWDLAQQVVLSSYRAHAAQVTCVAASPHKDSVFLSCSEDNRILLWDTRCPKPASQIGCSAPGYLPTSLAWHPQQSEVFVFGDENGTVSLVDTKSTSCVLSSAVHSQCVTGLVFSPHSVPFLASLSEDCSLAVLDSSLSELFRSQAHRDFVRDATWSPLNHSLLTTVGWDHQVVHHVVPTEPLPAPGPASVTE

IC50	SMILES
758 nM	Cn1ncc(-c2ccc3c(=O)[nH]nc(CN)c3c2)c1-c1c(F)cnc(OC2CC2)c1C#N (atropisomer, axis not shown; (P)) [Example 16-135, (P)-4-(4-(4-(aminomethyl)-1-oxo-1,2-dihydrophthalazin-6-yl)-1-methyl-1H-pyrazol-5-yl)-2-cyclopropoxy-5-fluoronicotinonitrile]
> 10000 nM	Cn1ncc(-c2ccc3c(=O)[nH]nc([C@H](N)C(F)F)c3c2)c1-c1ccc2ccccc2c1C#N [Example 9-6, 2-[4-[4-[(1S)-1-amino-2,2-difluoro-ethyl]-1-oxo-2H-phthalazin-6-yl]-2-methyl-pyrazol-3-yl]naphthalene-1-carbonitrile]
> 10000 nM	Cn1ncc(-c2ccc3c(=O)[nH]nc(CN)c3c2)c1-c1c(C2COC2)ccc2c1COC2 (atropisomer, axis not shown; (P)) [Example 16-137, (P)-4-(aminomethyl)-6-(1-methyl-5-(5-(oxetan-3-yl)-1,3-dihydroisobenzofuran-4-yl)-1H-pyrazol-4-yl)phthalazin-1(2H)-one]
347 nM	Cn1ncc(-c2ccc3c(=O)[nH]nc(CN)c3c2)c1-c1c(Cl)ccc(OC2CC2)c1C#N (atropisomer, axis not shown; (P)) [Example 16-131, (P)-2-(4-(4-(aminomethyl)-1-oxo-1,2-dihydrophthalazin-6-yl)-1-methyl-1H-pyrazol-5-yl)-3-chloro-6-cyclopropoxybenzonitrile]
634 nM	Cc1c(F)c(-c2c(-c3cc(C)c4c(=O)[nH]nc(CN)c4c3)cnn2C)c(C#N)c2cc(Cl)cnc12 (single isomer, unassigned) [Example 16-107, (P)-6-(4-(4-(aminomethyl)-8-methyl-1-oxo-1,2-dihydrophthalazin-6-yl)-1-methyl-1H-pyrazol-5-yl)-3-chloro-7-fluoro-8-methylquinoline-5-carbonitrile]
477 nM	Cn1ncc(-c2ccc3c(=O)[nH]nc(CN)c3c2)c1-c1c(C#N)cc2[nH]cnc2c1Cl (atropisomer, axis not shown; (P)) [Example 16-116, (P)-5-(4-(4-(aminomethyl)-1-oxo-1,2-dihydrophthalazin-6-yl)-1-methyl-1H-pyrazol-5-yl)-4-chloro-1H-benzo[d]imidazole-6-carbonitrile]
> 10000 nM	Cn1ncc(-c2ccc3c(c2)C(C)(N)CNC3=O)c1-c1sc2ccccc2c1C#N (centres unmarked) [Example 20-7, 2-(4-(4-amino-4-methyl-1-oxo-1,2,3,4-tetrahydroisoquinolin-6-yl)-1-methyl-1H-pyrazol-5-yl)benzo[b]thiophene-3-carbonitrile]
1270 nM	C[C@@H](N)c1n[nH]c(=O)c2ccc(-c3cnn(C)c3-c3ccc4ccccc4c3C#N)nc12 [Example 20-1]
3820 nM	N#Cc1ccccc1-n1c(-c2ccc3c(=O)[nH]nc(CN)c3c2)cnc1CO [Example 4-194, 2-(5-(4-(aminomethyl)-1-oxo-1,2-dihydrophthalazin-6-yl)-2-(hydroxymethyl)-1H-imidazol-1-yl)benzonitrile]
1030 nM	Cn1ncc(-c2ccc3c(c2)C(CN)NC3=O)c1-c1sc2ccccc2c1C#N (centres unmarked) [Example 20-4, 2-(4-(3-(aminomethyl)-1-oxoisoindolin-5-yl)-1-methyl-1H-pyrazol-5-yl)benzo[b]thiophene-3-carbonitrile]
168 nM	Cn1ncc(-c2ccc3c(=O)[nH]nc(CN)c3c2)c1N1CCCC1C#N (centres unmarked) [Example 4-290, 1-(4-(4-(aminomethyl)-1-oxo-1,2-dihydrophthalazin-6-yl)-1-methyl-1H-pyrazol-5-yl)pyrrolidine-2-carbonitrile]
2250 nM	Cc1ncn(-c2ccc3c(=O)[nH]nc(CN)c3c2)c1-c1sc2ccccc2c1C#N [Example 20-6, 2-[3-[4-(aminomethyl)-1-oxo-2H-phthalazin-6-yl]-5-methyl-imidazol-4-yl]benzothiophene-3-carbonitrile]
635 nM	Cn1ncc(-c2ccc3c(c2)C(CCN)NC3=O)c1-c1sc2ccccc2c1C#N (centres unmarked) [Example 20-5, 2-[4-[3-(2-aminoethyl)-1-oxo-isoindolin-5-yl]-2-methyl-pyrazol-3-yl]benzothiophene-3-carbonitrile]
347 nM	Cn1ncc(-c2ccc3c(=O)[nH]nc(CN)c3c2)c1-c1c(Cl)cc2ccccc2c1C#N (single isomer, unassigned) [Example 16-127, (P)-2-(4-(4-(aminomethyl)-1-oxo-1,2-dihydrophthalazin-6-yl)-1-methyl-1H-pyrazol-5-yl)-3-chloro-1-naphthonitrile]
2380 nM	Cc1cc2ccccc2c(C#N)c1-c1c(-c2ccc3c(=O)[nH]nc(CN)c3c2)cnn1C (single isomer, unassigned) [Example 12-15A]
393 nM	Cn1ncc(-c2ccc3c(=O)[nH]nc(CN)c3c2)c1-c1c(F)cnc(OC2CC2)c1C#N (atropisomer, axis not shown; (M)) [Example 16-136, (M)-4-(4-(4-(aminomethyl)-1-oxo-1,2-dihydrophthalazin-6-yl)-1-methyl-1H-pyrazol-5-yl)-2-cyclopropoxy-5-fluoronicotinonitrile]
251 nM	Cn1ncc(-c2ccc3c(=O)[nH]nc(CN)c3c2)c1-c1c(Cl)ccc(OC2CC2)c1C#N (atropisomer, axis not shown; (M)) [Example 16-132, (M)-2-(4-(4-(aminomethyl)-1-oxo-1,2-dihydrophthalazin-6-yl)-1-methyl-1H-pyrazol-5-yl)-3-chloro-6-cyclopropoxybenzonitrile]
51 nM	CCOc1cc(-c2cnn(C)c2-c2c(F)c(C)c3ncc(Cl)cc3c2C#N)cc2c(CN)n[nH]c(=O)c12 (single isomer, unassigned) [Example 16-112, (M)-6-(4-(4-(aminomethyl)-8-ethoxy-1-oxo-1,2-dihydrophthalazin-6-yl)-1-methyl-1H-pyrazol-5-yl)-3-chloro-7-fluoro-8-methylquinoline-5-carbonitrile]
8720 nM	Cn1ncc(-c2ccc3c(=O)[nH]nc(CN)c3c2)c1-c1c(C#N)cc2[nH]cnc2c1Cl (atropisomer, axis not shown; (M)) [Example 16-115, (M)-5-(4-(4-(aminomethyl)-1-oxo-1,2-dihydrophthalazin-6-yl)-1-methyl-1H-pyrazol-5-yl)-4-chloro-1H-benzo[d]imidazole-6-carbonitrile]
1080 nM	Cn1ncc(-c2ccc3c(=O)[nH]nc(CN)c3c2)c1-c1c(F)cc(S(F)(F)(F)(F)F)cc1C#N (atropisomer, axis not shown; (P)) [Example 16-133, (P)-2-(4-(4-(aminomethyl)-1-oxo-1,2-dihydrophthalazin-6-yl)-1-methyl-1H-pyrazol-5-yl)-3-fluoro-5-(pentafluoro-16-sulfanyl)benzonitrile]
65 nM	Cn1ncc(-c2ccc3c(=O)[nH]nc(CN)c3c2)c1-c1c(Cl)cc2ccccc2c1C#N (single isomer, unassigned) [Example 16-128, (M)-2-(4-(4-(aminomethyl)-1-oxo-1,2-dihydrophthalazin-6-yl)-1-methyl-1H-pyrazol-5-yl)-3-chloro-1-naphthonitrile]
356 nM	Cc1cc2ccccc2c(C#N)c1-c1c(-c2ccc3c(=O)[nH]nc(CN)c3c2)cnn1C (single isomer, unassigned) [Example 12-15B]
2310 nM	Cn1ncc(-c2cc3c(CN)n[nH]c(=O)c3s2)c1-c1ccc2ccccc2c1C#N [Example 17-7, 2-(4-(4-(aminomethyl)-7-oxo-6,7-dihydrothieno[2,3-d]pyridazin-2-yl)-1-methyl-1H-pyrazol-5-yl)-1-naphthonitrile]
